Experiment [1] addresses TYK2 (Homo sapiens, UniProt P29597). The experiment can be described thus: Biochemical potency on Tyk2, TR-FRET LANCE Ultra kinase assay (examples 1-99). Conditions: ATP at Km (12 μM), read-out: Tyk2 inhibitory activity (pIC50 class) (converted). In short, it runs like this: (§1)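 Each JAK isoform (human) was tested separately in a peptide-phosphorylation TR-FRET assay at ATP ≈ Km. Eleven compound concentrations, top 20 μM, 5-fold spacing. Values are IC50s from normalized-response curve fits.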
(In general: TR-FRET usually uses a lanthanide donor and a delayed reading to cut background.)

The target of experiment [2] is T1, JAK 3 (Homo sapiens, UniProt P52333).
T1 sequence (P52333 1-1124): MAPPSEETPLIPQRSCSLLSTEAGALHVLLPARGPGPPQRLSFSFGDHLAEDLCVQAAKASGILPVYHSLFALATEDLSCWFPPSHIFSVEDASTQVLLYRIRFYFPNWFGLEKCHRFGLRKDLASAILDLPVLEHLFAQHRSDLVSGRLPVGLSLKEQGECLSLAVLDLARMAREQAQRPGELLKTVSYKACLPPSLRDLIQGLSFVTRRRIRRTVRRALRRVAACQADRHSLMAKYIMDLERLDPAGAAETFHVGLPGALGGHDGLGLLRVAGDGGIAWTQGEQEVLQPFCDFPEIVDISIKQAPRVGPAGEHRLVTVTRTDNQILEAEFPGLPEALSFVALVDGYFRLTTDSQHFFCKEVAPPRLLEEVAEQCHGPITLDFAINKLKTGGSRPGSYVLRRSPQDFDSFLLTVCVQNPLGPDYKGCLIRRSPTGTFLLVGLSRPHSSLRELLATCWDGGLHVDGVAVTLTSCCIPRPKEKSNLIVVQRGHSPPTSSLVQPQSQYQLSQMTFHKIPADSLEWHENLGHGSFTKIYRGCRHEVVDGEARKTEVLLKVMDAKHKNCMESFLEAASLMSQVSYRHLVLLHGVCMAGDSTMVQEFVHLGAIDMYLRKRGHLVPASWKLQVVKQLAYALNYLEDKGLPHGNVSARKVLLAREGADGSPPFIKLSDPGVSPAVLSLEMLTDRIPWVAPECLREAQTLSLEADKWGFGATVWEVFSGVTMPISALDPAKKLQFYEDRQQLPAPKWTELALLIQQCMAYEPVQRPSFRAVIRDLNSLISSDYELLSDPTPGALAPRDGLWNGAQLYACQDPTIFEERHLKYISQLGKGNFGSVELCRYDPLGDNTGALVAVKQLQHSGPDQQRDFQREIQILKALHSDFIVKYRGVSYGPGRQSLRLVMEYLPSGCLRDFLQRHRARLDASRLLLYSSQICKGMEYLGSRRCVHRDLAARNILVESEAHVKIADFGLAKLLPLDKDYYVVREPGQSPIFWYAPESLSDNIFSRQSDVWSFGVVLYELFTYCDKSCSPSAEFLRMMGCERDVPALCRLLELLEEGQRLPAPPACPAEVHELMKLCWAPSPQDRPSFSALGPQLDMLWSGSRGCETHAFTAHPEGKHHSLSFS
The experiment can be described thus: Biochemical potency on JAK3, TR-FRET LANCE Ultra kinase assay (examples 1-99). Conditions: ATP at Km (0.2 μM), read-out: JAK3 inhibitory activity (pIC50 class) (converted). In short, it runs like this:
as §1

In experiment [3] the target is JAK 2 (Homo sapiens, UniProt O60674). The experiment can be described thus: Biochemical potency on JAK2, TR-FRET LANCE Ultra kinase assay (examples 1-99). The settings on record: ATP at Km (0.7 μM), read-out: JAK2 inhibitory activity (pIC50 class) (converted). In short, it runs like this:
as §1

Experiment [4] concerns the target JAK 1 (Homo sapiens, UniProt P23458). The experiment can be described thus: Biochemical potency on JAK1, TR-FRET LANCE Ultra kinase assay (examples 1-99). Conditions: ATP at Km (20 μM), read-out: JAK1 inhibitory activity (pIC50 class) (converted). The essentials:
as §1

Each structure is given as a SMILES string.

JAK 2, sequence (O60674 whole entry): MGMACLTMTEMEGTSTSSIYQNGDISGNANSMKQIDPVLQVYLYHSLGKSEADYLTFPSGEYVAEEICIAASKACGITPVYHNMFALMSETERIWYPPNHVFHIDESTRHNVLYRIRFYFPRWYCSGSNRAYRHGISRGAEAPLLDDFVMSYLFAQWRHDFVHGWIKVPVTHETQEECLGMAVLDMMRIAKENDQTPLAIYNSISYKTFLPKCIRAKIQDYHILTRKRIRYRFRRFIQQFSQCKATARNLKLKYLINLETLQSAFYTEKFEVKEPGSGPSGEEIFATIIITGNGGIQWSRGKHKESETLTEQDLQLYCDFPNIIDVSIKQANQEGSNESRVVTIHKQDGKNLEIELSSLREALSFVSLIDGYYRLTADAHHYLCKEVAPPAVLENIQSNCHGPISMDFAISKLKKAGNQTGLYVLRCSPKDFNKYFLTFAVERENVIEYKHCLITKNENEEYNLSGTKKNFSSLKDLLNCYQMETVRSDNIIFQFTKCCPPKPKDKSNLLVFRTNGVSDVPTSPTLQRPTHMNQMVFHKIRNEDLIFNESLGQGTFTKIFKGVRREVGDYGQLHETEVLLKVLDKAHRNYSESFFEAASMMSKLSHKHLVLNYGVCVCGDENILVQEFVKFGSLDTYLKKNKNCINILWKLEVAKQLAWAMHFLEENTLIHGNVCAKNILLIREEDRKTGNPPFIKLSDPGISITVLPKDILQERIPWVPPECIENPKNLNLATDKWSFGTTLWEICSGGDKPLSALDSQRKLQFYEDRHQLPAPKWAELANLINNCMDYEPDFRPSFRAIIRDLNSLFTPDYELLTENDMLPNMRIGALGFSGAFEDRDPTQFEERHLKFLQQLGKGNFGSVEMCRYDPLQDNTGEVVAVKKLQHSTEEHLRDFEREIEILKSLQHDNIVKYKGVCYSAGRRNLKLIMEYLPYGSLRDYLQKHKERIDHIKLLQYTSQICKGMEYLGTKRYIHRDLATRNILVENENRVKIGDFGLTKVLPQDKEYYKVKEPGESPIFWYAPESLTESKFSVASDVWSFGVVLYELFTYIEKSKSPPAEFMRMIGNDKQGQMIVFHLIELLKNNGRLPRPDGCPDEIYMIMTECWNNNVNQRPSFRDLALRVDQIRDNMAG
JAK 1, sequence (P23458 whole entry): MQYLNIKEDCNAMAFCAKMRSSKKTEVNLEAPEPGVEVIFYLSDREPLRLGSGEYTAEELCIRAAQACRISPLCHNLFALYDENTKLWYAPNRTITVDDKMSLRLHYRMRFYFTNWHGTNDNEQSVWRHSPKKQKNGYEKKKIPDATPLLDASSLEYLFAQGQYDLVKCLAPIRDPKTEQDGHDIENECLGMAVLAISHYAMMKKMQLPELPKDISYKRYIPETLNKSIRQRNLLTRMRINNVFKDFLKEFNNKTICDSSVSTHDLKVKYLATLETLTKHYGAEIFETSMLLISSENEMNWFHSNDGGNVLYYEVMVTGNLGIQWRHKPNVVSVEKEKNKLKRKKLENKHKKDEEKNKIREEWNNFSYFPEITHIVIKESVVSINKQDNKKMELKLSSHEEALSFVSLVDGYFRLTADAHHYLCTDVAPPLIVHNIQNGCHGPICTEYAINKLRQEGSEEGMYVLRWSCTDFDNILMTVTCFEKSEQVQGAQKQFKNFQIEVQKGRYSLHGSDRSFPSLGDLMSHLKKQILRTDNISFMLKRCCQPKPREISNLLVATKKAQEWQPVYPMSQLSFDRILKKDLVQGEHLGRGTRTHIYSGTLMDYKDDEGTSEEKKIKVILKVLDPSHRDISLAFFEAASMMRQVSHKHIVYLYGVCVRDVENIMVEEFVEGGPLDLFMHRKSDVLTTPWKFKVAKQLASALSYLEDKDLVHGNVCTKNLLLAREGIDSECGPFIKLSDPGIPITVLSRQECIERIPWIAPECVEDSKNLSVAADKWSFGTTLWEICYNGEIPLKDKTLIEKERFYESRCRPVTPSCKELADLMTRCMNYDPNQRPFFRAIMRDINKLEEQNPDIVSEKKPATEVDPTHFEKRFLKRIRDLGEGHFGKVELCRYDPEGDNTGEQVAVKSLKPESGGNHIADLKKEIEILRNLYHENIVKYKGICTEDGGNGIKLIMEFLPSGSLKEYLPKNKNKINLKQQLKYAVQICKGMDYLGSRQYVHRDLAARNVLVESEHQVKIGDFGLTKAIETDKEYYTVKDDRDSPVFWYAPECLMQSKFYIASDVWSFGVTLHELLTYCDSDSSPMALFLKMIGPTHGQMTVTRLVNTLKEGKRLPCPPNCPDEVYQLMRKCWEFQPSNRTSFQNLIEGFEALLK
TYK2, sequence (P29597 whole entry, canonical isoform): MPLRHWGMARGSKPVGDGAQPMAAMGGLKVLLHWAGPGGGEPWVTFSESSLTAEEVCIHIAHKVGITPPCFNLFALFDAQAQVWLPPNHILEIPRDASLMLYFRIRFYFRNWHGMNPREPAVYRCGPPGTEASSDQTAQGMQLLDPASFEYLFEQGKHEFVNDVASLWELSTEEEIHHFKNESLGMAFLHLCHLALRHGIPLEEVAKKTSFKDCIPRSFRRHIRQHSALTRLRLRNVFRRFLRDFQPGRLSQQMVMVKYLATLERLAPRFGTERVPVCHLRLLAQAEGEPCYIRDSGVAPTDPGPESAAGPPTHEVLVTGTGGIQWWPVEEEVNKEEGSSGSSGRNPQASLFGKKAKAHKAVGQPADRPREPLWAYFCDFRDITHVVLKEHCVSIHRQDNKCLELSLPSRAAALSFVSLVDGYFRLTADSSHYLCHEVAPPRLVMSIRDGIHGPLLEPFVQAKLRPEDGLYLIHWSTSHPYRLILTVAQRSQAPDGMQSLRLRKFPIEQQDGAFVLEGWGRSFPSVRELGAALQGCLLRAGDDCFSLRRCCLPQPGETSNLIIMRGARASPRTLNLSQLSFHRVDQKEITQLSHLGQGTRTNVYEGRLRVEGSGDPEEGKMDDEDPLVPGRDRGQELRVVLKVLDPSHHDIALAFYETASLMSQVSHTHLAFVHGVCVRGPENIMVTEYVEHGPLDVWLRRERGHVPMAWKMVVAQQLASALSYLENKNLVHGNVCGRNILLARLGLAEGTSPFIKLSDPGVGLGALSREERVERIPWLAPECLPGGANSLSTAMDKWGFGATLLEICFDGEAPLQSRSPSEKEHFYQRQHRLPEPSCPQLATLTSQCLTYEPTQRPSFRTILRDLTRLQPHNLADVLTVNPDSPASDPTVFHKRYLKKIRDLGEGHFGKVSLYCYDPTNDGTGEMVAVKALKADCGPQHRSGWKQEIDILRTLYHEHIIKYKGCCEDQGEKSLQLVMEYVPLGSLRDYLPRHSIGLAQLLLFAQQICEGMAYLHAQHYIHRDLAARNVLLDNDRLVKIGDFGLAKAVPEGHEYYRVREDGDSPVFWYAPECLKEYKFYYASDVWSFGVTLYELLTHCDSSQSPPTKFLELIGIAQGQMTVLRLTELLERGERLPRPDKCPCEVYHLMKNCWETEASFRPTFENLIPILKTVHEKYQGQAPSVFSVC

With `CSc1ccc(OC(F)F)c(-n2nc(C(=O)NCCCN(C)C)c3cnc(-c4cnn5cccnc45)cc32)c1` [Example 37, 1-(2-(difluoromethoxy)-5-(methylthio)phenyl)-N-(3-(dimethylamino)propyl)-6-(pyrazolo[1,5-a]pyrimidin-3-yl)-1H-pyrazolo[4,3-c]pyridine-3-carboxamide], the IC50 in experiment [1] was 5.01 to 50.1 nM; in experiment [2], at most 5.01 nM; in experiment [3], at most 5.01 nM; in experiment [4] it was at most 5.01 nM.

With `COc1ccc(F)cc1-n1nc(C(=O)NCCCN(C)C)c2cnc(-c3cnn4cccnc34)cc21` [Example 38, N-(3-(dimethylamino)propyl)-1-(5-fluoro-2-methoxyphenyl)-6-(pyrazolo[1,5-a]pyrimidin-3-yl)-1H-pyrazolo[4,3-c]pyridine-3-carboxamide], the IC50 in experiment [1] is above 50.1 nM; in experiment [2], 5.01 to 50.1 nM; in experiment [3], 5.01 to 50.1 nM; in experiment [4], 5.01 to 50.1 nM.

Turning to `COc1ccc(Cl)cc1-n1nc(N)c2cnc(-c3cnn4cccnc34)cc21` [Example 39, 1-(5-chloro-2-methoxyphenyl)-6-(pyrazolo[1,5-a]pyrimidin-3-yl)-1H-pyrazolo[4,3-c]pyridin-3-amine], the IC50 was 5.01 to 50.1 nM in experiment [1], at most 5.01 nM in experiment [2], at most 5.01 nM in experiment [3] and at most 5.01 nM in experiment [4].

Regarding `COc1ccc(Cl)cc1-n1nc(NC(C)=O)c2cnc(-c3cnn4cccnc34)cc21` [Example 40, N-(1-(5-chloro-2-methoxyphenyl)-6-(pyrazolo[1,5-a]pyrimidin-3-yl)-1H-pyrazolo[4,3-c]pyridin-3-yl)acetamide], the IC50 in experiment [1] was 5.01 to 50.1 nM; in experiment [2] it was at most 5.01 nM; in experiment [3], at most 5.01 nM; in experiment [4] it was at most 5.01 nM.

Take `CNc1nn(-c2cc(Cl)ccc2OC)c2cc(-c3cnn4cccnc34)ncc12` [Example 41, 1-(5-chloro-2-methoxyphenyl)-N-methyl-6-(pyrazolo[1,5-a]pyrimidin-3-yl)-1H-pyrazolo[4,3-c]pyridin-3-amine]: the IC50 is 5.01 to 50.1 nM in experiment [1], at most 5.01 nM in experiment [2], at most 5.01 nM in experiment [3] and at most 5.01 nM in experiment [4].

On to `COc1ccc(Cl)cc1-n1nc(N(C)C)c2cnc(-c3cnn4cccnc34)cc21` [Example 42, 1-(5-chloro-2-methoxyphenyl)-N,N-dimethyl-6-(pyrazolo[1,5-a]pyrimidin-3-yl)-1H-pyrazolo[4,3-c]pyridin-3-amine], for which the IC50 in experiment [1], in experiment [2], in experiment [3] and in experiment [4] was 5.01 to 50.1 nM each time.

Consider `COc1ccc(S(C)(=O)=O)cc1-n1nc(NCCN2CCOCC2)c2cnc(-c3cnn4cccnc34)cc21` [Example 43, 1-(2-methoxy-5-(methylsulfonyl)phenyl)-N-(2-morpholinoethyl)-6-(pyrazolo[1,5-a]pyrimidin-3-yl)-1H-pyrazolo[4,3-c]pyridin-3-amine], for which the IC50 is above 50.1 nM in experiment [1], 5.01 to 50.1 nM in experiment [2], 5.01 to 50.1 nM in experiment [3] and 5.01 to 50.1 nM in experiment [4].

For `COc1ccc(C(F)F)cc1-n1nc(NCCN(C)C)c2cnc(-c3cnn4cccnc34)cc21` [Example 44, N1-(1-(5-(difluoromethyl)-2-methoxyphenyl)-6-(pyrazolo[1,5-a]pyrimidin-3-yl)-1H-pyrazolo[4,3-c]pyridin-3-yl)-N2,N2-dimethylethane-1,2-diamine], the IC50 in experiment [1] was 5.01 to 50.1 nM; in experiment [2], 5.01 to 50.1 nM; in experiment [3] it was at most 5.01 nM; in experiment [4], 5.01 to 50.1 nM.

As to `COc1ccc(C)cc1-n1nc(NCCN(C)C)c2cnc(-c3cnn4cccnc34)cc21` [Example 45, N1-(1-(2-methoxy-5-methylphenyl)-6-(pyrazolo[1,5-a]pyrimidin-3-yl)-1H-pyrazolo[4,3-c]pyridin-3-yl)-N2,N2-dimethylethane-1,2-diamine], the IC50 was above 50.1 nM in experiment [1], 5.01 to 50.1 nM in experiment [2], 5.01 to 50.1 nM in experiment [3] and 5.01 to 50.1 nM in experiment [4].

`CSc1ccc(OC(F)F)c(-n2nc(NCCCN(C)C)c3cnc(-c4cnn5cccnc45)cc32)c1` [Example 46, N1-(1-(2-(difluoromethoxy)-5-(methylthio)phenyl)-6-(pyrazolo[1,5-a]pyrimidin-3-yl)-1H-pyrazolo[4,3-c]pyridin-3-yl)-N3,N3-dimethylpropane-1,3-diamine]: the IC50 was 5.01 to 50.1 nM in experiment [1], at most 5.01 nM in experiment [2], at most 5.01 nM in experiment [3] and 5.01 to 50.1 nM in experiment [4].

Consider `COc1ccc(Cl)cc1-n1nc(N2CCN(C(C)=O)CC2)c2cnc(-c3cnn4cccnc34)cc21` [Example 47, 1-(4-(1-(5-chloro-2-methoxyphenyl)-6-(pyrazolo[1,5-a]pyrimidin-3-yl)-1H-pyrazolo[4,3-c]pyridin-3-yl)piperazin-1-yl)ethan-1-one], for which the IC50 in experiment [1] is above 50.1 nM; in experiment [2], 5.01 to 50.1 nM; in experiment [3] it was 5.01 to 50.1 nM; in experiment [4], 5.01 to 50.1 nM.

As for `COc1ccc(Cl)cc1-n1nc(N2CCNCC2)c2cnc(-c3cnn4cccnc34)cc21` [Example 48, 1-(5-chloro-2-methoxyphenyl)-3-(piperazin-1-yl)-6-(pyrazolo[1,5-a]pyrimidin-3-yl)-1H-pyrazolo[4,3-c]pyridine], the IC50 in experiment [1], in experiment [2], in experiment [3] and in experiment [4] was 5.01 to 50.1 nM in each case.

Regarding `COc1ccc(Cl)cc1-n1nc(N2CC(CO)C2)c2cnc(-c3cnn4cccnc34)cc21` [Example 49, (1-(1-(5-chloro-2-methoxyphenyl)-6-(pyrazolo[1,5-a]pyrimidin-3-yl)-1H-pyrazolo[4,3-c]pyridin-3-yl)azetidin-3-yl)methanol], the IC50 in experiment [1], in experiment [2], in experiment [3] and in experiment [4] was 5.01 to 50.1 nM in each case.

Consider `COc1ccc(Cl)cc1-n1nc(OC)c2cnc(-c3cnn4cccnc34)cc21` [Example 50, 1-(5-chloro-2-methoxyphenyl)-3-methoxy-6-(pyrazolo[1,5-a]pyrimidin-3-yl)-1H-pyrazolo[4,3-c]pyridine], for which the IC50 in experiment [1], in experiment [2], in experiment [3] and in experiment [4] was 5.01 to 50.1 nM each time.

With `COc1ccc(Cl)cc1-n1ncc2c(N(C)C)nc(-c3cnn4cccnc34)cc21` [Example 51, 1-(5-chloro-2-methoxyphenyl)-N,N-dimethyl-6-(pyrazolo[1,5-a]pyrimidin-3-yl)-1H-pyrazolo[4,3-c]pyridin-4-amine], the IC50 in experiment [1] was above 50.1 nM; in experiment [2], 5.01 to 50.1 nM; in experiment [3], 5.01 to 50.1 nM; in experiment [4] it was 5.01 to 50.1 nM.

`CNc1nc(-c2cnn3cccnc23)cc2c1cnn2-c1cc(Cl)ccc1OC` [Example 52, 1-(5-chloro-2-methoxyphenyl)-N-methyl-6-(pyrazolo[1,5-a]pyrimidin-3-yl)-1H-pyrazolo[4,3-c]pyridin-4-amine]: the IC50 in experiment [1] is above 50.1 nM; in experiment [2], above 50.1 nM; in experiment [3], 5.01 to 50.1 nM; in experiment [4], above 50.1 nM.

`COc1ccc(Cl)cc1-n1ncc2c(NCCNC(C)=O)nc(-c3cnn4cccnc34)cc21` [Example 53, N-(2-((1-(5-chloro-2-methoxyphenyl)-6-(pyrazolo[1,5-a]pyrimidin-3-yl)-1H-pyrazolo[4,3-c]pyridin-4-yl)amino)ethyl)acetamide]: the IC50 in experiment [1] was above 50.1 nM; in experiment [2], above 50.1 nM; in experiment [3] it was above 50.1 nM; in experiment [4] it was 5.01 to 50.1 nM.

(Values after patent publication US20240279240A1, “HETEROCYCLIC DERIVATIVES AS JANUS KINASE INHIBITORS” (CHIESI FARMACEUTICI S.P.A., priority 2021, published 2024).)
